Laboratory results: patent publication US20240287076A1, “COMPOUNDS FOR TARGETING DEGRADATION OF BRUTON'S TYROSINE KINASE” (BIOGEN MA INC., priority 2021, published 2024)

Target: T1, BTK (Homo sapiens, UniProt Q06187)
T1 construct: The GM01501.3 cell line endogenously expresses BTK with a HiBiT fusion tag via CRISPR knock-in at its C-terminal region; endogenous in cells; host or cells: GM01501.3 (GM01501 cells engineered by CRISPR knock-in of HiBiT at the BTK locus)
Assay: BTK degradation assay using the HiBiT Method (Nano-Glo HiBiT Lytic Assay, GM01501.3 cells)
Assay type: cell-based
Details: HiBiT Degradation on GM01501.3 BTK @ 6 hours
Summary of the method: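 Degradation read-out: HiBiT luminescence after lytic reagent addition, giving DC50. Compounds dosed from 10 μM in 11 half-log steps (duplicate) onto GM01501.3 cells, whose endogenous BTK carries a C-terminal HiBiT knock-in tag; 6 h exposure, 37 °C, 5% CO2.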

T1 sequence (Q06187 whole entry, the tested form may be a part): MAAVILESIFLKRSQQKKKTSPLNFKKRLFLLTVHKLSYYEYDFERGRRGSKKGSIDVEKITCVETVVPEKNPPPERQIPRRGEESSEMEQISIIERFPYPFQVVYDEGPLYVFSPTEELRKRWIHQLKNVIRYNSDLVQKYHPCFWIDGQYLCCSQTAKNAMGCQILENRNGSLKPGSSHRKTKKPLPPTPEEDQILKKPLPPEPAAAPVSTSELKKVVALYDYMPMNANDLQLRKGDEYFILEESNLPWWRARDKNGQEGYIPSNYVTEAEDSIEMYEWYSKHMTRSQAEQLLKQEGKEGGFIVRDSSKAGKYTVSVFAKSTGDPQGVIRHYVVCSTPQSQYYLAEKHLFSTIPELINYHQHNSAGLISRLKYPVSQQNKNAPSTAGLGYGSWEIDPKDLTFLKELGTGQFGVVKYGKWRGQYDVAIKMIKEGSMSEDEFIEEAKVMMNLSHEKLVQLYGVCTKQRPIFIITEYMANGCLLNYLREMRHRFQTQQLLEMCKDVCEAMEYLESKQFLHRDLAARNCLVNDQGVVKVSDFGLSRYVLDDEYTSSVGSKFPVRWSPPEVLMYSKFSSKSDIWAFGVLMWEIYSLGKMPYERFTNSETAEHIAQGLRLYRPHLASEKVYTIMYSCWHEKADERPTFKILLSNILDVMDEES

DC50, < 100 nM:
CC(C)(C)c1nc(C(=O)NCc2ccc(-c3ncnn4cc(-c5ccc(CN6CCCC(c7ccc(OC8CCC(=O)NC8=O)cc7)C6)cn5)cc34)cc2F)no1 (stereo not drawn) [Example 236, 5-(tert-butyl)-N-(4-(6-(5-((3-(4-((2,6-dioxopiperidin-3-yl)oxy)phenyl)piperidin-1-yl)methyl)pyridin-2-yl)pyrrolo[2,1-f][1,2,4]triazin-4-yl)-2-fluorobenzyl)-1,2,4-oxadiazole-3-carboxamide]
Cc1cc(-c2ncnn3cc(-c4ccc(OCCCCCCCCN5CCC(c6ccc(NC7CCC(=O)NC7=O)cc6)CC5)cc4)cc23)ccc1CNC(=O)c1noc(C(C)(C)C)n1 (stereo not drawn) [Example 115, -tert-butyl-N-[[4-[6-[4-[8-[4-[4-[(2,6-dioxo-3-piperidyl)amino]phenyl]-1-piperidyl]octoxy]phenyl]pyrrolo[2,1-f][1,2,4]triazin-4-yl]-2-methyl-phenyl]methyl]-1,2,4-oxadiazole-3-carboxamide]
Cc1cc(-c2ncnn3cc(-c4ccc(CN5CCC(c6ccc(NC7CCC(=O)NC7=O)cc6)CC5)cc4)cc23)ccc1CNC(=O)N1CC(OC(C)(C)C)C1 (stereo not drawn) [Example 97, 3-tert-butoxy-N-[[4-[6-[4-[[4-[4-[(2,6-dioxo-3-piperidyl)amino]phenyl]-1-piperidyl]methyl]phenyl]pyrrolo[2,1-f][1,2,4]triazin-4-yl]-2-methyl-phenyl]methyl]azetidine-1-carboxamide]
Cc1cc(-c2ccnn3cc(-c4ccc(CN5CCC(c6ccc(NC7CCC(=O)NC7=O)cc6)CC5)cc4)cc23)ccc1CNC(=O)c1noc(C(C)(C)C)n1 (stereo not drawn) [Example 154, 5-tert-butyl-N-[[4-[6-[4-[[4-[4-[(2,6-dioxo-3-piperidyl)amino]phenyl]-1-piperidyl]methyl]phenyl]pyrrolo[1,2-b]pyridazin-4-yl]-2-methyl-phenyl]methyl]-1,2,4-oxadiazole-3-carboxamide]
Cc1c(NC(=O)c2ccc(C(C)(C)O)cc2)cc(F)cc1-c1ncnn2cc(-c3ccc(CN4CCC(c5ccc(NC6CCC(=O)NC6=O)cc5)CC4)cc3)cc12 (stereo not drawn) [Example 153, N-[3-[6-[4-[[4-[4-[(2,6-dioxo-3-piperidyl)amino]phenyl]-1-piperidyl]methyl]phenyl]pyrrolo[2,1-f][1,2,4]triazin-4-yl]-5-fluoro-2-methyl-phenyl]-4-(1-hydroxy-1-methyl-ethyl)benzamide]
Cc1cc(-c2ncnn3cc(-c4ccc(CN5CCC(c6ccc(NC7CCC(=O)NC7=O)cc6)CC5)cc4)cc23)ccc1CNC(=O)c1noc(C(C)(C)C)n1 (single isomer, unassigned; isomer 2) [Example 3, 5-tert-butyl-N-[[4-[6-[4-[[4-[4-[(2,6-dioxo-3-piperidyl)amino]phenyl]-1-piperidyl]methyl]phenyl]pyrrolo[2,1-f][1,2,4]triazin-4-yl]-2-methyl-phenyl]methyl]-1,2,4-oxadiazole-3-carboxamide isomer 2]
CC(C)(C)c1nc(C(=O)NCc2ccc(-c3ncnn4cc(-c5ccc(CN6CCc7ccc(OC8CCC(=O)NC8=O)cc7C6)cn5)cc34)cc2F)no1 (stereo not drawn) [Example 226]
Cc1cc(-c2ncnn3cc(-c4ccc(CN5CCC(c6ccc(NC7CCC(=O)NC7=O)cc6)CC5)cc4)cc23)ccc1CNC(=O)c1cc(C(C)(C)C)on1 (stereo not drawn) [Example 83, -tert-butyl-N-[[4-[6-[4-[[4-[4-[(2,6-dioxo-3-piperidyl)amino]phenyl]-1-piperidyl]methyl]phenyl]pyrrolo[2,1-f][1,2,4]triazin-4-yl]-2-methyl-phenyl]methyl]isoxazole-3-carboxamide]
Cc1cc(-c2ncnn3cc(CCCCN4CCN(c5ccc(C6CCC(=O)NC6=O)cn5)CC4)cc23)ccc1CNC(=O)c1noc(C(C)(C)C)n1 (stereo not drawn) [Example 279, 5-(tert-butyl)-N-(4-(6-(4-(4-(5-(2,6-dioxopiperidin-3-yl)pyridin-2-yl)piperazin-1-yl)butyl)pyrrolo[2,1-f][1,2,4]triazin-4-yl)-2-methylbenzyl)-1,2,4-oxadiazole-3-carboxamide]
Cc1cc(-c2ncnn3cc(-c4ccc(CN5CCC(c6ccc7c(N8CCC(=O)NC8=O)nn(C)c7c6)CC5)cc4)cc23)ccc1CNC(=O)c1noc(C(C)(C)C)n1 [Example 28, 5-tert-butyl-N-[[4-[6-[4-[[4-[3-(2,4-dioxohexahydropyrimidin-1-yl)-1-methyl-indazol-6-yl]-1-piperidyl]methyl]phenyl]pyrrolo[2,1-f][1,2,4]triazin-4-yl]-2-methyl-phenyl]methyl]-1,2,4-oxadiazole-3-carboxamide]
Cc1cc(-c2ncnn3cc(-c4ccc(CN5CCC(c6ccc(NC7CCC(=O)NC7=O)cc6)CC5)cc4)cc23)ccc1CNC(=O)c1cnc(C(C)(C)C)o1 (stereo not drawn) [Example 85, 2-tert-butyl-N-[[4-[6-[4-[[4-[4-[(2,6-dioxo-3-piperidyl)amino]phenyl]-1-piperidyl]methyl]phenyl]pyrrolo[2,1-f][1,2,4]triazin-4-yl]-2-methyl-phenyl]methyl]oxazole-5-carboxamide]
Cc1cc(-c2ncnn3cc(-c4cccc(CN5CCC(c6ccc7c(N8CCC(=O)NC8=O)nn(C)c7c6)CC5)n4)cc23)ccc1CNC(=O)c1noc(C(C)(C)C)n1 [Example 248, 5-(tert-butyl)-N-(4-(6-(6-((4-(3-(2,4-dioxotetrahydropyrimidin-1(2H)-yl)-1-methyl-1H-indazol-6-yl)piperidin-1-yl)methyl)pyridin-2-yl)pyrrolo[2,1-f][1,2,4]triazin-4-yl)-2-methylbenzyl)-1,2,4-oxadiazole-3-carboxamide]
CC(C)(C)c1nc(C(=O)NCc2ccc(-c3ncnn4cc(CCCCN5CCN(c6ccc(NC7CCC(=O)NC7=O)cn6)CC5)cc34)cc2F)no1 (stereo not drawn) [Example 139, 5-tert-butyl-N-[[4-[6-[4-[4-[5-[(2,6-dioxo-3-piperidyl)amino]-2-pyridyl]piperazin-1-yl]butyl]pyrrolo[2,1-f][1,2,4]triazin-4-yl]-2-fluoro-phenyl]methyl]-1,2,4-oxadiazole-3-carboxamide]
Cc1cc(-c2ncnn3cc(-c4ccc(CN5CCC(c6ccc(NC7CCC(=O)NC7=O)nn6)CC5)cc4)cc23)ccc1CNC(=O)c1noc(C(C)(C)C)n1 (stereo not drawn) [Example 31, 5-tert-butyl-N-[[4-[6-[4-[[4-[6-[(2,6-dioxo-3-piperidyl)amino]pyridazin-3-yl]-1-piperidyl]methyl]phenyl]pyrrolo[2,1-f][1,2,4]triazin-4-yl]-2-methyl-phenyl]methyl]-1,2,4-oxadiazole-3-carboxamide]
Cc1cc(-c2ncnn3cc(N4CCN(CCCCc5ccc6c(N7CCC(=O)NC7=O)nn(C)c6c5)CC4)cc23)ccc1CNC(=O)c1noc(C(C)(C)C)n1 [Example 297, 5-(tert-butyl)-N-(4-(6-(4-(4-(3-(2,4-dioxotetrahydropyrimidin-1(2H)-yl)-1-methyl-1H-indazol-6-yl)butyl)piperazin-1-yl)pyrrolo[2,1-f][1,2,4]triazin-4-yl)-2-methylbenzyl)-1,2,4-oxadiazole-3-carboxamide]
